Assay results taken from ChEMBL document CHEMBL3508693.

How the values were obtained:
Type in all cases: cell-free
[1] = organism: Mus musculus; assay: In vitro plasma protein binding (reported as Fu[%]) of 10,000 ng.ml-1 [14C] aliskiren hemifumarate in pooled plasma samples of mouse; parameters: conc 10000 ng.ml-1, sampling time 1 h; details: CD-1(ICR)BR, tested as the 14C-labelled form, at 10000 ng/mL
[2] = organism: Rattus norvegicus; assay: In vitro plasma protein binding (reported as Fu[%]) of 10,000 ng.ml-1 [14C] aliskiren hemifumarate in pooled plasma samples of rat; parameters: conc 10000 ng.ml-1, sampling time 1 h; details: WI(Glx/BRL/Han)BR, tested as the 14C-labelled form, at 10000 ng/mL
[3] = organism: Homo sapiens; assay: (§1) In vitro plasma protein binding (reported as Fu[%]) of 500 ng.ml-1 [14C] aliskiren hemifumarate in human; parameters: conc 500 ng.ml-1, sampling time 1 h; details: tested as the 14C-labelled form, at 500 ng/mL
[4] = organism: Oryctolagus cuniculus; assay: In vitro plasma protein binding (reported as Fu[%]) of 10,000 ng.ml-1 [14C] aliskiren hemifumarate in pooled plasma samples of rabbit; parameters: conc 10000 ng.ml-1, sampling time 1 h; details: New Zealand White, tested as the 14C-labelled form, at 10000 ng/mL
[5] = organism: Homo sapiens; assay: as §1; parameters: conc 500 ng.ml-1, sampling time 1 h; details: tested as the 14C-labelled form, at 500 ng/mL; remark: listed apart in the source
[6] = organism: Callithrix jacchus; assay: In vitro plasma protein binding (reported as Fu[%]) of 10,000 ng.ml-1 [14C] aliskiren hemifumarate in pooled plasma samples of marmoset; parameters: conc 10000 ng.ml-1, sampling time 1 h; details: tested as the 14C-labelled form, at 10000 ng/mL
[7] = organism: Homo sapiens; assay: as §1; parameters: conc 500 ng.ml-1, sampling time 1 h; details: tested as the 14C-labelled form, at 500 ng/mL; remark: listed apart in the source

COCCCOc1cc(C[C@@H](C[C@H](N)[C@@H](O)C[C@H](C(=O)NCC(C)(C)C(N)=O)C(C)C)C(C)C)ccc1OC
Fu [1]: 28.8% | Fu [2]: 38.3% | Fu [3]: 51.4% | Fu [4]: 42.5% | Fu [5]: 47.3% | Fu [6]: 8.1% | Fu [7]: 49.8%
